Results taken from PMC10119128, “Parkinson’s disease-associated ATP13A2/PARK9 functions as a lysosomal H^+,K^+-ATPase” (Nature Communications, 2023).

Columns and labels:
ATP13A2 [1] = target: T1, ATP13A2 (Homo sapiens, UniProt Q9NQ11); experiment: ΔTG-sensitive ATPase activity in membrane fractions, mock control; […]+ efflux; siRNA knockdown in SH-SY5Y; assay type: biochemical
T1 construct: full-length, N-terminal Xpress-tag, membrane fractions of transfected HEK293 cells
T1 sequence (Q9NQ11 1-1180): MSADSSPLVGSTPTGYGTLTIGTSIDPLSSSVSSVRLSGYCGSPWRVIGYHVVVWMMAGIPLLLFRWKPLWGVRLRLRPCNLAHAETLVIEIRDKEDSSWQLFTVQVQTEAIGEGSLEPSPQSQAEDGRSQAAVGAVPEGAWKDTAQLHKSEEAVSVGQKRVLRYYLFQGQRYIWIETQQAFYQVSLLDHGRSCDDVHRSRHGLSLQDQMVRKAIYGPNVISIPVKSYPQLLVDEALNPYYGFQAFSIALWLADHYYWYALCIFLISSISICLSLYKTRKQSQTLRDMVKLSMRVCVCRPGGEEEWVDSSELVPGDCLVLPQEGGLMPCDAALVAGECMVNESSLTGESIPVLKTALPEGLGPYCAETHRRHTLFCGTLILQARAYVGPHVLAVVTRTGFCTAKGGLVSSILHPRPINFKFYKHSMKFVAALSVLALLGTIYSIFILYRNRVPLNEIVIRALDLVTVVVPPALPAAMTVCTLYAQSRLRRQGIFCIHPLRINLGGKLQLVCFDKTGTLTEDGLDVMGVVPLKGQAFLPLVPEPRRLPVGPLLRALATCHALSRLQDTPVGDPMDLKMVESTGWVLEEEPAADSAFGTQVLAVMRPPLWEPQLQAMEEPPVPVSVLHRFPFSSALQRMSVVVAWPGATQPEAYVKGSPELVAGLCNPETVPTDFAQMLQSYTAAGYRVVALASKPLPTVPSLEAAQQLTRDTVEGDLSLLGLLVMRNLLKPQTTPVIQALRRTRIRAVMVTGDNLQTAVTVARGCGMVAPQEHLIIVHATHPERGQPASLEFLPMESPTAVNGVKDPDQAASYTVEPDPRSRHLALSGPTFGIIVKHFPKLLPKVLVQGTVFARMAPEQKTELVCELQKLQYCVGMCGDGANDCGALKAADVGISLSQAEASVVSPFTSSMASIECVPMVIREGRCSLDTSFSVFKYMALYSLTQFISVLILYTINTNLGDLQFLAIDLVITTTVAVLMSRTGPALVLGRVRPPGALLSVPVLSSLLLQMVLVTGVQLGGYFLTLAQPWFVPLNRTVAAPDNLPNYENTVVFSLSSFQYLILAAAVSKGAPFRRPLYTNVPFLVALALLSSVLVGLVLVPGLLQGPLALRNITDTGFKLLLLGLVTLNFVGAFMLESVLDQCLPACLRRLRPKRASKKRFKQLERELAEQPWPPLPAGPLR

ATP13A2 [2] = target: T1, ATP13A2; experiment: ΔTG-sensitive ATPase activity in membrane fractions, mock control; […]+ efflux; assay type: biochemical

IC50 (ATP13A2 [1]) [nM] | SMILES | IC50 (ATP13A2 [2]) [nM]
800 | CNCc1cc(-c2ccccc2F)n(S(=O)(=O)c2cccnc2)c1 [vonoprazan] | –
– | CO/C1=C\C(C)=C\[C@@H](C)[C@@H](O)[C@@H](C)C/C(C)=C/C=C/[C@H](OC)[C@@H]([C@@H](C)[C@@H](O)[C@H](C)[C@@]2(O)C[C@@H](O)[C@H](C)[C@@H](C(C)C)O2)OC1=O [bafilomycin A1] | 0.5
1200 | Cc1nc2c(OCc3ccccc3)cccn2c1CC#N [SCH28080] | –
